This note sets out measurements from PMC12019328, “Discovery of an ApoE4-targeted small-molecule SirT1 enhancer for the treatment of Alzheimer’s disease” (Scientific Reports, 2025).

Series [1] can be described thus: In vivo pharmacokinetic analysis, brain levels after oral gavage. Also noted: species or system C57BL/6J mice. Particulars: for brain levels: single time point one hour, oral gavage 30 mg/Kg, n = 1. On the procedure: […] One hour later, mice were euthanized by pentobarbital over-anesthesia and trans-cardial collection of blood for isolation of plasma by centrifugation at 10,000 x g for 10 min at 4 °C. Brain tissue was collected for analysis, frozen on dry ice and stored at -80 °C before analysis.
For LC/MS/MS analysis, tissue samples were homogenized in a bead beater using 5 volumes of ice-cold 80% acetonitrile (1/5; mg of tissue/ µL of 80% ACN). Solutions were clarified by centrifugation (16,000 x g, 5 min) and the supernatants were transferred to new tubes and lyophilized. Samples were reconstituted in 100 µL of 50/50/0.1 (water/acetonitrile/formic acid) before analysis via liquid chromatography-tandem mass spectrometry.
A 6460 triple quadrupole mass spectrometer (Agilent Technologies) coupled to a 1290 Infinity HPLC system (Agilent Technologies) with a Phenomenex analytical column (Kinetex 1.7 μm C18 100 Å 100 × 2.1 mm) was used for HPLC. The HPLC method utilized a mixture of solvent A (99.9/1 water/formic acid) and solvent B (99.9/1 acetonitrile/formic acid) and a gradient was used for the elution of the compounds (min/%B: 0/20, 3/20, 19/99, 20/99, 21/20, 30/20).
An internal standard (IS; Reserpine) was added to every sample to account for compound loss during sample processing. Standards were made in drug naïve brain and plasma with increasing amounts of DDL-214- (S1,S2: 0.1 pmol/ S3,S4: 1 pmol/ S5,S6: 10 pmol/ S7,S8: 100 pmol/ S9,S10: 1000 pmol). The standard curve was made by plotting the amount of each compound per standard vs. the ratio of measured chromatographic peak areas corresponding to DDL-214 (DDL-214 -/Reserpine). The trendline equation was then used to calculate the absolute concentrations of DDL-214/-218/-219 in brain tissue and plasma.

Series [2] in a line: Observation of mice behavior in the PK study. It is filed as in vivo. The conditions noted are these: oral gavage 10 or 30 mg/Kg. The protocol:
C57BL/6J mice were administered DDL-214, -218, or -219 (n = 3 per compound) by oral gavage at a dose of 30 mg/kg in a volume of 5 mL/Kg based on mouse weight. One hour later, mice were euthanized by pentobarbital over-anesthesia and trans-cardial collection of blood for isolation of plasma by centrifugation at 10,000 x g for 10 min at 4 °C. Brain tissue was collected for analysis, frozen on dry ice and stored at -80 °C before analysis.

Series [3] relates to SirT1 protein in N2a-E4 cells. Briefly: SirT1 protein levels in N2a-E4 cells (AlphaLISA). It is filed as cell-based, murine. The conditions noted are these: N2a-E4 cells, 5 µM, 24 h, vs DMSO control. On the procedure: Relative SirT1 mRNA and protein enhancement by racemate DDL-214 and enantiomers DDL-218 and − 219 was determined in murine neuroblastoma cells stably transfected with ApoE4 (N2a-E4)[25]. All test compounds in DMSO were prepared at 2x the final concentration in DMEM supplemented with 10% fetal bovine serum (FBS) and 1% pen-strep (PS) and 50 µL of each loaded into individual wells of a 96-well plate. Previously cultured N2a-E4 were then trypsinized, harvested, centrifuged, and counted; then 50 µL of cell suspension adjusted to 400 cells/µL was added to each well. The plate was then incubated at 37 °C, 5% CO2 for 48 h. Cells were treated with DDL-214, DDL-218, or DDL-219 at 5 µM final then incubated for 24 h. After incubation, the cells were lysed with 50 µL of ice-cold lysis buffer (0.4% SDS, 3.5% Triton X-100, 0.02% sodium deoxycholate, 28 mM TRIS pH 8) complemented with 1X final Halt™ Protease and Phosphatase Inhibitor Cocktail (Thermo Fisher catalog # 78442), placed on ice for 10 min and at -80 °C, followed by 3 freeze/thaw cycles.
An AlphaLISA comprising streptavidin donor beads (Revvity catalog # 6760002 S), biotinylated anti-SirT1 N-terminal antibody (monoclonal 19A7AB4, Abcam catalog # ab110304), and acceptor beads (Revvity catalog # 6772001) conjugated to the anti-SirT1 C-terminal antibody (monoclonal 1F3, Abcam catalog # ab104833) was used to determine SirT1 protein levels. […] The plates were read using an Envision plate reader.
Figure S3B. […] Compound treatment was done at 5 and 50 µM. SirT1 levels were measured by AlphaLISA followed and normalized to protein […]
Brain tissue was homogenized in PBS (pH 7.4) (1: 3 weight(mg)/volume(µL)) and the protein concentration of was determined using the Micro BCA™ Protein Assay Kit (Thermo Fisher Scientific, Cat#23235). […]
The % of the unbound drug (fu,bound) was calculated using the following equation: fu,bound = [normalized peak area in buffer side / normalized peak area in brain side] x 100 Liver Microsome Stability [t1/2 (min)] […]

Series [4] deals with SirT1 mRNA in Kelly cells. Briefly: SirT1 mRNA in Kelly neuroblastoma cells. The class given is cell-based, human. The conditions noted are these: 5 µM, 24 h, vs DMSO control. The protocol: Human neuroblastoma ‘Kelly’ cells (genotype APOE3/APOE4) were plated in 96-well plates at 50K cells per well and were grown overnight in RPMI 1640 supplemented with 2 mM Glutamine, 10% FBS and 1% Pen-Strep. Cells were treated with 5 µM DDL-214, -218, or -219; or DMSO vehicle (n = 8 per compound). Twenty-four hours later, medium was removed, cells washed and lysed as described above for N2a-E4 cells.
Total RNA was isolated from cells or brain tissue (Qiagen RNEasy kit). Total RNA (0.5–1.0 µg) mRNA was then converted to cDNA (SuperScript™ III First-Strand Synthesis SuperMix kit; Thermo Fisher), and gene mRNA levels were measured using a gene-specific qRT-PCR Taqman assays (Thermo Fisher). Gene mRNA levels were normalized to GAPDH mRNA levels measured either in the same cDNA sample or in the same qPCR reaction using multiplexing of gene-of-interest/VIC and GAPDH/FAM, normalized by the delta-delta-Ct method.

Structures are written as SMILES. Several values for one entry are separate records, joined by “and”; a condition that tells them apart may be missing. Identical values can stand only once.

Turning to `CC(N)C(=O)OC(C)(C)Cc1ccncc1` (centres unmarked) [DDL-219], the brain levels in series [1] (30 mg/kg) was ~ 6500 ng/g and 29.2 µM. The “changes in mice behavior indicative of drug-induced toxicity” value in series [2] is recorded as “No notable changes in mice behavior”.
Take `CC(N)C(=O)OC(C)(C)Cc1ccncc1` (centres unmarked) [DDL-214]: in series [3], the SirT1 protein levels result was “increased SirT1 protein levels”. Besides, the “SirT1 mRNA” value in series [4] is “higher than DMSO control, but the difference was not significant”. Besides, the “brain Cmax” value in series [1] (oral 30 mg/Kg, time course study, 30 mg/kg) is ~ 9400 ng/g and 42.3 µM; in series [1] (oral gavage 10 mg/Kg, wildtype mouse, at one hour, 10 mg/kg), 1270 ng/g and 5.7 µM. Besides, the brain levels in series [1] (30 mg/kg) is ~ 3000 ng/g and 13.5 µM. The “changes in mice behavior indicative of drug-induced toxicity” value in series [2] is “No notable changes in mice behavior”.
